# Publication PMC8495968, “Towards optimizing peptide-based inhibitors of protein–protein interactions: predictive saturation variation scanning (PreSaVS)” (RSC Chemical Biology, 2021)
# Values joined by “and” are separate entries in the source; they are usually repeats but may differ in a detail not shown here. Equal entries are not always repeated.
# Experiments:
# [1] = target: T1, MCL-1 (Homo sapiens, UniProt Q07820); assay: Isothermal calorimetry (ITC) of peptide binding to MCL-1; conditions: 50 mM Tris, 150 mM NaCl, pH 7.5, 150 μM peptide; for Kd: 25°C, one-binding site model
# T1 construct: 172-327 was expressed; His-SUMO (N, cleaved yes); made in house
# T1 sequence (Q07820 172-327): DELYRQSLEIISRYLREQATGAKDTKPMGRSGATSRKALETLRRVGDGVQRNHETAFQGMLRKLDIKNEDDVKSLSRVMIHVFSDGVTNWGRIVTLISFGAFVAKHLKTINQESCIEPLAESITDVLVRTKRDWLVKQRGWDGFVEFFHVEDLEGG
# Description: Peptide variants were prepared as N-terminal acetamides and C-terminal amides (see ESI ^†). […] Lastly, structural effects of these variations were investigated using circular dichroism (CD) spectroscopy (Fig. S4, ESI ^†).
# (b) ITC data (50 mM Tris, 150 mM NaCl, pH 7.5, 150 μM peptide). […]
# ITC experiments were carried out using a Microcal ITC200i instrument (Malvern) at 25°C in […]
# […] The protein of interest was dialysed against the buffer prior to experiment, and lyophilized peptides were dissolved in the same buffer. Protein was present in the cell and titrated with peptide solutions loaded into the syringe using 20 x 2 uL injections with 120 s spacing between the injections. Heats of peptide dilution were subtracted from each measurement raw data. Data was analysed using Microcal Origin 8 and
# [2] = target: T2, hSUMO-1 18-97 (Homo sapiens, UniProt P63165); assay: Fluorescence anisotropy competition assay, FITC-peg-SIM tracer / SUMO; type: binding; conditions: for inhibitory potency in competition FA: competition FA vs SIM tracer/SUMO, relative to SIM2705–2717; for IC50: competition FA, 50 mM Tris, 150 mM NaCl, 25 nM tracer, 100 nM SUMO, read after 45 min, triplicate
# T2 construct: 18-97; His-TEV (N, cleaved yes); made in house
# T2 sequence (P63165 18-97): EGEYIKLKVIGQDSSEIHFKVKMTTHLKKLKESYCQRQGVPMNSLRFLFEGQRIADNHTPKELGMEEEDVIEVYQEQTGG
# Description: hSUMO-1 18-97 was expressed and purified as previously described from a pet19b His-TEV-SUMO-1 (18-97) construct with cleavage of the tag using TEV protease.4 […]
# (§1) Fluorescence anisotropy assays were performed in 384-well plates (Greiner Bio-one). Each experiment was run in triplicate and the fluorescence anisotropy measured using a Perkin Elmer EnVisionTM 2103 MultiLabel plate reader, with excitation at 480 nm (30 nm bandwidth), polarised dichroic mirror at 505 nm and emission at 535 nm (40 nm bandwidth, S and P polarised). All assays were performed in 20 mM Tris, 100 mM NaCl, 0.1 mM DTT, pH 7.5 unless otherwise stated and data analysed following previously published methods.
# (§2) Fluorescence anisotropy data was processed as described previously.[2] Briefly. the data from both the P (perpendicular intensity) and S (parallel intensity) channels, resulting from this measurement and corrected by subtracting the corresponding control wells, were used to calculate the intensity and anisotropy for each well following Equations 1 and 2: […]
# (§3) For direct titration the average anisotropy (across three experimental replicates) and the standard deviation of these values were then calculated and fit to a logistic model using OriginPro 9.0 to determine the maximum and minimum anisotropies then the fraction bound calculated (Equation 3) and used to determine Kd (equation 4)
# (§4) Lb= (r‒rmin)/λ(rmax‒r)+r‒rmin Equation 3
# (§5) y= {(k+ x+[ FL])‒√{k+x+[FL] 2‒4x[FL]}}/2 Equation 4 r = anisotropy, I = total intensity, P = perpendicular intensity, S = parallel intensity, G = instrument factor which was set to 1 for all experiments, Lb = fraction ligand bound, λ = […]
# (§6) For competition experiments, the anisotropies were determined as for the direct titration and then plotted against inhibitor concentration and fit (equation 5) to determine the IC50 and error […]
# (§7) y = rmax + (rmin-rmax)/(1+(x/xo)p) Equation 5
# (§8) Where xo represents the IC50 […]
# (§9) Competition binding assays:
# (§10) FA competition assays were performed in 384 well plates with the concentration of variant […]
# (§11) with fixed protein and tracer concentrations. FITC-labelled peptide was added to each well to […]
# (§12) For control wells, the tracer peptide was replaced with an identical volume of assay buffer.
# (§13) The total volume in each well was 60 μL. […]
# [3] = target: T3, hMCL-1 172-327 (Homo sapiens, UniProt Q07820); assay: Fluorescence anisotropy competition assay, FITC-Ahx-BIM75–85 tracer / MCL-1; type: binding; conditions: for inhibitory activity in competition FA: competition FA vs FITC-Ahx-BIM75–85/MCL-1, relative to NOXA75–93
# T3 construct: 172-327 was expressed; His-SUMO (N, cleaved yes); made in house
# T3 sequence (Q07820 172-327): as the sequence (Q07820 172-327) above
# Description: as §1, §2, §3, §4, §5, §6, §7, §8, §9, §10, §11, §12, §13
# [4] = tested on: α-chymotrypsin; assay: Proteolysis by α-chymotrypsin; type: in vitro ADME, bovine; conditions: 45 μM peptide, 0.25 μg/ml α-chymotrypsin, 25 °C, 50 mM Tris-HCl pH 8.0, 150 mM NaCl, 10 mM CaCl2; LC-MS EIC of full-length peptide; triplicate
# Description: An advantage of PreSaVS lies in the ability to identify tolerated variants – in terms of target binding affinity – with more desirable physicochemical properties (Table S3 for calculated physicochemical properties, ESI ^†). […] This may arise from subtle changes in protease recognition specificity, although given proteases recognise substrates in an extended, β-like conformation as is the case for the SIM2705–2717/SUMO interaction, secondary structure propensity may also play a role.
# Figure S7. Proteolysis data for (a) NOXA75-93 (45 μM peptide in the presence of 0.25 μg/ml α-chymotrypsin at 25 °C) and (b) SIM2705-2717 (40 μM peptide in the presence of 0.75 μg/mL Proteinase K at 25 °C). Data points show the mean ± standard deviation over triplicate measurements. Insets show t1/2 values.
# as §8
# diluted over 16-24 points using 2-fold dilutions. […]
# of assay buffer. Plates were read after 45 minutes. […]
# The total volume in each well was 60 μL. Plates were read after 45 minutes of incubation at […]
# uL injections with 120 s spacing between the injections. […] Data was analysed using Microcal Origin 8 and fitted to a one-binding site model […]
# Peptide solubility was assessed using a qualitative test.
# = 5690 M-1cm-1), concentrations were determined based on the absorbance at 280 nm. For NOXA variants, concentrations were determined based on absorbance at 205 nm (ε 205 = […]
ΔG [1],ΔH [1],IC50 [2],IC50 [3],Kd [1],inhibitory activity in competition FA [3],Compound,other results
-2.08 kcal/mol,-4.59 ± 0.359 kcal/mol,–,–,–,–,CC[C@H](C)[C@H](NC(=O)[C@H](CCCNC(=N)N)NC(=O)[C@H](CCCNC(=N)N)NC(=O)[C@H](CC(C)C)NC(=O)[C@H](CCC(N)=O)NC(=O)[C@H](C)NC(=O)[C@H](C)NC(C)=O)C(=O)NCC(=O)N[C@@H](CC(=O)O)C(=O)N[C@@H](CCCCN)C(=O)N[C@H](C(=O)N[C@@H](CC(N)=O)C(=O)N[C@@H](CC(C)C)C(=O)N[C@@H](CCCNC(=N)N)C(=O)N[C@@H](CCC(N)=O)C(=O)N[C@@H](CCCCN)C(=O)N[C@@H](CC(C)C)C(=O)N[C@@H](CC(C)C)C(=O)N[C@@H](CC(N)=O)C(N)=O)C(C)C [NOXA75–93],–
–,–,> 200000 nM,–,–,–,CC[C@H](C)[C@H](NC(=O)[C@H](CCC(=O)O)NC(=O)[C@H](CC(N)=O)NC(=O)[C@H](CC(=O)O)NC(C)=O)C(=O)N[C@@H](CCC(=O)O)C(=O)N[C@H](C(=O)N[C@@H](CCC(=O)O)C(=O)N[C@H](C(=O)N[C@H](C(=O)N[C@@H](Cc1c[nH]c2ccccc12)C(=O)N[C@@H](CCC(=O)O)C(=O)N[C@@H](CCCCN)C(=O)N[C@@H](CCCCN)C(N)=O)C(C)C)[C@@H](C)CC)C(C)C [SIM2705–2717I2711E],inhibitory potency in competition FA [2]: lost inhibitory potency
–,–,16200 nM and 16100 nM,–,–,–,CC[C@H](C)[C@H](NC(=O)[C@H](CCC(=O)O)NC(=O)[C@H](CC(N)=O)NC(=O)[C@H](CC(=O)O)NC(C)=O)C(=O)N[C@@H](CCC(=O)O)C(=O)N[C@H](C(=O)N[C@H](C(=O)N[C@H](C(=O)N[C@H](C(=O)N[C@@H](Cc1c[nH]c2ccccc12)C(=O)N[C@@H](CCC(=O)O)C(=O)N[C@@H](CCCCN)C(=O)N[C@@H](CCCCN)C(N)=O)C(C)C)[C@@H](C)CC)[C@@H](C)CC)[C@@H](C)CC [SIM2705–2717V2710I],–
–,–,> 200000 nM,–,–,–,CC[C@H](C)[C@H](NC(=O)[C@H](CCC(=O)O)NC(=O)[C@H](CC(N)=O)NC(=O)[C@H](CC(=O)O)NC(C)=O)C(=O)N[C@@H](CCC(=O)O)C(=O)N[C@H](C(=O)N[C@H](C(=O)N[C@H](C(=O)N[C@@H](CCC(=O)O)C(=O)N[C@@H](Cc1c[nH]c2ccccc12)C(=O)N[C@@H](CCC(=O)O)C(=O)N[C@@H](CCCCN)C(=O)N[C@@H](CCCCN)C(N)=O)[C@@H](C)CC)[C@@H](C)CC)C(C)C [SIM2705–2717V2713E],inhibitory potency in competition FA [2]: lost inhibitory potency
–,–,–,2700 ± 100 nM,1700 ± 100 nM,–,Ac-AAQFRRIGDKVNLRQKLLN-NH2 [NOXA75–93L78F],increased rate of cleavage by α-chymotrypsin relative to NOXA75–93 [4]: ≈ 10 fold
-2 kcal/mol,-3.66 ± 0.813 kcal/mol,–,> 20000 nM,800 ± 100 nM,weaker inhibitory activity,Ac-AAQLRRIGDKFNLRQKLLN-NH2 [NOXA75–93V85F],−TΔS [1]: 1.65 kcal/mol
–,–,–,> 100000 nM,–,poor inhibitor,Ac-AAQYRRIGDKVNLRQKLLN-NH2 [NOXA75–93L78Y],increased rate of cleavage by α-chymotrypsin relative to NOXA75–93 [4]: ≈ 10 fold

Compound,ΔG [1],ΔH [1],IC50 [2],IC50 [3],Kd [1],inhibitory activity in competition FA [3],other results
Ac-AAQWRRIGDKVNLRQKLLN-NH2 [NOXA75–93L78W],-1.83 kcal/mol,-3.13 ± 0.932 kcal/mol,–,2200 ± 100 nM,2400 ± 800 nM,tolerated,−TΔS [1]: 1.31 kcal/mol
